Laboratory results from patent publication US20190022039A1, “COMPOUND HAVING ENHANCING ACTIVITY FOR GLUCAGON-LIKE PEPTIDE-1 RECEPTOR ACTIONS” (AJINOMOTO CO., INC., priority 2016, published 2019).

Molecular target: T1, human GLP-1R (Homo sapiens, UniProt P43220)
T1 construct: expressed in transfected cells; host or cells: PEAK RAPID-derived Gα15-trans48 LD stably expressing cells (PRG48), transiently transfected with Lipofectamine 2000
Test: GLP-1 receptor in vitro calcium assay (intracellular free calcium concentration change induced via GLP-1 receptor)
Format: cell-based
Conditions: for EC50: PRG48 cells transfected with human GLP-1R, compound added with 250 pM GLP-1, Ca2+ response ΔF/F, read-out: Ca EC50 value; for GLP-1 receptor action enhancing activity (vs BETP): intensity compared to BETP, activity of BETP as 1
Experimental: The supernatant was removed by centrifugation (1,200 rpm, 3 min), and the cells were suspended at 4×10^6 cells/mL in 5% FBS DMEM/Ham's F-12. 1.0 mL thereof was seeded in a 15 cm dish and cultured (37° C., 5% CO2) overnight. The next day, the medium of the cultured PRG48 cells was replaced with 5% FBS DMEM/Ham's F-12 medium (30 mL), human GLP-1R gene mixture solution (GLP-1R/pc.DNA3.1(+) 60 μg) prepared using 6.0 mL of Opti-MEM (invitrogen) and 120 μL of Lipofectamin 2000 (invitrogen) was slowly added to the cells, and cultured (37° C., 5% CO2) for 6 hr to introduce the gene. […] The cells were counted, suspended at 0.5×10^6 cells/mL in 5% FBS DMEM/Ham's F-12 medium, and seeded in each well of D-Lysine coat 96 well plate (BD Bioscience) at 7.0×10^4 cells. After static adhesion at room temperature for 1 hr, the cells were cultured overnight (37° C., 5% CO2). The medium in the Cultured 96 well was entirely discarded, 150 μL of intracellular calcium measurement staining solution Calcium assay kit Express (Molecular Device) diluted 80-fold with Assay buffer (20 mM HEPES, 146 mM NaCl, 1 mM MgSO4, 1.39 mM glucose, 1 mM CaCl2, 2.5 mM Probenecid, 0.05% Casein Enzymatic Hydrolysate) was added, and the mixture was stood at 37° C. for 30 min, and then at room temperature for 45 min to perform staining. After staining, 250 pM GLP-1 and the compound were added and Ca^2+ response was observed by using FDSSμCELL (Hamamatsu Photonics K.K.). Each evaluation compound was dissolved in DMSO, further diluted with Assay buffer and used.
For evaluation, the fluorescence values (Ex480:Em540) before and after addition were measured, and changes in the intracellular free calcium concentration produced via GLP-1R receptor by the addition were quantitatively examined. For the measurement and analysis of the fluorescence values, a soft (FDSS7000EX) attached to the FDSSμCELL was used, and ΔF/F value ((maximum fluorescence value after stimulation−minimum fluorescence value after stimulation)/fluorescence value before stimulation) was calculated. Using the obtained ΔF/F values, EC50 value was calculated by Prism5.

T1 sequence (P43220 24-463): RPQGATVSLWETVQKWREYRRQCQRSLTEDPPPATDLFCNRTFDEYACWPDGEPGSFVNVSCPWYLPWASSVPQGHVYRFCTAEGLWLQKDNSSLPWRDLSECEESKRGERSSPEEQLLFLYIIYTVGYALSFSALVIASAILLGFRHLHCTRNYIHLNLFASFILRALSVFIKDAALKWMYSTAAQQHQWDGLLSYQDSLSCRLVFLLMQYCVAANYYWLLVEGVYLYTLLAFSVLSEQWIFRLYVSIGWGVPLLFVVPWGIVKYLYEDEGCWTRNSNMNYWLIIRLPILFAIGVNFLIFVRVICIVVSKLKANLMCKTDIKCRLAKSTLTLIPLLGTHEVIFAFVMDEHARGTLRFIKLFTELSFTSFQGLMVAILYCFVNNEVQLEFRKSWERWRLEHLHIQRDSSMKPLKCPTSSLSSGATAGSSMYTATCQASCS

Compound | EC50 [nM] | GLP-1 receptor action enhancing activity (vs BETP)
Cc1ccc(S(=O)(=O)Nc2ccc(NC(=O)N[C@@H](CC(C)C)C(=O)OC(C)(C)C)cc2)cc1 [Compound 65] | 2000 | 13
CCCCCCNc1ccc(S(=O)(=O)Nc2cccc(NC(=O)N[C@H](CC3CCCCC3)C(=O)NCC(CC)CCCC)c2)cn1 (stereo partly shown) [Compound 114] | 30 | 850
Cc1ccc(S(=O)(=O)Nc2ccc(NC(=O)N[C@H](Cc3ccccc3)C(=O)NC[C@H]3CCC4CC3C4(C)C)cc2)cc1 (stereo partly shown) [Compound 60] | 45 | 560
CCCCCCCNC(=O)[C@@H](Cc1ccccc1)NC(=O)Nc1ccc(NS(=O)(=O)c2ccc(C)cc2)cc1 [Compound 6] | 130 | 187
CC(C)(C)OC(=O)[C@H](Cc1ccccc1)NC(=O)Nc1ccc(NS(=O)(=O)c2ccc(C(F)(F)F)cc2)cc1 [Compound 81] | 1000 | 24
Cc1ccc(S(=O)(=O)Nc2ccc(NC(=O)N[C@H](CC(C)C)C(=O)NCC3CCCCC3)cc2)cc1 [Compound 29] | 940 | 27
CCCCCCNC(=O)[C@@H](Cc1ccc(Cl)cc1)NC(=O)Nc1ccc(NS(=O)(=O)c2ccc(C)cc2)cc1 [Compound 19] | 160 | –
Cc1ccc(S(=O)(=O)Nc2ccc(NC(=O)N[C@H](Cc3ccccc3)C(=O)NCc3ccc(F)cc3)cc2)cc1 [Compound 26] | 1100 | 24
CC(C)(C)c1ccc(S(=O)(=O)Nc2ccc(NC(=O)N[C@@H](CC3CCCCC3)c3nc(-c4ccc(OC(F)(F)F)cc4)no3)cc2)cc1 [Compound 84] | 3.4 | 7358

Second part, the compound after the results:

EC50 [nM] | GLP-1 receptor action enhancing activity (vs BETP) | Compound
1100 | 23 | Cc1ccc(S(=O)(=O)Nc2ccc(NC(=O)N[C@H](Cc3ccccc3)C(=O)NCC3CCCC3)cc2)cc1 [Compound 27]
440 | 56 | CCCCCCNc1ccc(S(=O)(=O)Nc2ccc(NC(=O)N[C@H](CC3CCCCC3)C(=O)NC(C)CCCC(C)C)cc2)cn1 (stereo partly shown) [Compound 105]
470 | 53 | CCCCCCNC(=O)[C@@H](Cc1c[nH]c2ccccc12)NC(=O)Nc1ccc(NS(=O)(=O)c2ccc(C)cc2)cc1 [Compound 21]
180 | 137 | CCCCCC(C)NC(=O)[C@@H](Cc1ccccc1)NC(=O)Nc1ccc(NS(=O)(=O)c2ccc(C)cc2)cc1 (stereo partly shown) [Compound 54]
130 | 199 | CCCCC(CC)CNC(=O)[C@@H](Cc1c[nH]c2ccccc12)NC(=O)Nc1ccc(NS(=O)(=O)c2ccc(C)cc2)cc1 (stereo partly shown) [Compound 40]
680 | 37 | CCCCCCNC(=O)[C@@H](Cc1ccccc1)NC(=O)Nc1ccc(NS(=O)(=O)c2ccc(C)cc2)cc1 [Compound 2]
820 | 31 | Cc1ccc(S(=O)(=O)Nc2ccc(NC(=O)N[C@H](Cc3ccccc3)C(=O)NCc3ccc(C)o3)cc2)cc1 [Compound 32]
50 | 503 | CCCCC(CC)CNC(=O)[C@@H](CC1CCCCC1)NC(=O)Nc1ccc(N2CCOCC2)c(NS(=O)(=O)c2ccc(C(C)(C)C)cc2)c1 (stereo partly drawn) [Compound 100, (2R)-2-({3-[(4-tert-butylphenyl)sulfonylamino]-4-morpholino-phenyl}carbamoylamino)-3-cyclohexyl-N-(2-ethylhexyl)propanamide]
1700 | 15 | Cc1ccccc1S(=O)(=O)Nc1ccc(NC(=O)N[C@@H](Cc2ccccc2)C(=O)OC(C)(C)C)cc1 [Compound 78]
1300 | 19 | Cc1ccc(S(=O)(=O)Nc2ccc(NC(=O)N[C@H](CC(C)C)C(=O)NC3CCCCCC3)cc2)cc1 [Compound 44]
